The record followed here is patent US20080248503A1, “Methods of Screening Compounds to Predict Toxicity and Residual Proliferative and Differentiation Capacity of the Lympho-Hematopoietic System” (priority 2005, published 2008).

For series [1], the system named is human PBMNCs cultured under BFU-E-stimulating conditions. Briefly: HALO cell proliferation (luminescence) of PBMNCs under BFU-E-stimulating conditions. The class given is cell-based. The note with it: days 3 and 7. The method, then:
Fresh human PBMNCs were cultured under BFU-E-stimulating conditions, together with 3 concentrations of DOX, namely 1 ng/ml (low), 10 ng/ml (medium) and 100 ng/ml (high) as per a typical HALO test procedure. Replicate plates were used so that the effects of DOX could be examined at 2 time points, namely days 3 and 7. At each time point, using the APOGLOW™ detection kit (Cambrex BioScience), ATP releasing reagent and ATP luminescence-monitoring reagent were added and the luminescence read immediately. A second luminescence reading was taken when the nadir ATP value occurred. At this point an ADP converting reagent (ADP-CR) was then added, which converts ADP to ATP and the luminescence measured when the conversion reached a plateau. From these 3 measurements ADP-.ATP ratio was determined. FIG. 15A and 15B show the mean RLU values for each of the DOX concentrations measured at the 2 time points. […] On day 3, the increase in ADP:ATP ratio is due to apoptosis of cells with low proliferative capacity.

The test system is the same in series [2]. Briefly: HALO apoptosis measurement (ADP:ATP ratio) of PBMNCs under BFU-E-stimulating conditions. The class given is cell-based. The method, then:
Fresh human PBMNCs were cultured under BFU-E-stimulating conditions, together with 3 concentrations of DOX, namely 1 ng/ml (low), 10 ng/ml (medium) and 100 ng/ml (high) as per a typical HALO test procedure. Replicate plates were used so that the effects of DOX could be examined at 2 time points, namely days 3 and 7. At each time point, using the APOGLOW™ detection kit (Cambrex BioScience), ATP releasing reagent and ATP luminescence-monitoring reagent were added and the luminescence read immediately. A second luminescence reading was taken when the nadir ATP value occurred. At this point an ADP converting reagent (ADP-CR) was then added, which converts ADP to ATP and the luminescence measured when the conversion reached a plateau. From these 3 measurements ADP-.ATP ratio was determined. FIG. 15A and 15B show the mean RLU values for each of the DOX concentrations measured at the 2 time points. […]
Cell proliferation and apoptosis can actually be performed in a single read by performing HALO as described above, but then instead of measuring only ATP, adenosine diphosphate (ADP) is also measured, as shown in FIGS. 15 and 16. […]
In the HALO methods that form the basis of the kits of the present invention, ATP is released from the cells using ATP releasing reagent and a 15 min incubation. Thereafter, the ATP luminescence-monitoring reagent is added and the plates read immediately. […]

For series [3], the system named is human HPP-SP. The source says:
(§1) Depending on the type and size of the HALO kit used, all of the culture components required, with the exception of the cells, are included. A typical HALO kit contains the 3 component mixes required to culture cells: • 1. Serum component mix (Mix 1): contains fetal bovine serum (FBS), bovine serum albumin (BSA), transferring and insulin. • 2. Methyl cellulose mix (Mix 2): contains methylcellulose and alph-thioglycerol. • 3. Growth factor mix (Mix 3): contains the type and number of growth factors depending on the cell population being stimulated. • 4. Target cells as prepared in step 1 above: different cell types are available from peripheral blood, bone marrow, or umbilical cord blood (humans) procured from human, non-human primate, dog, rat, or mouse. • Methyl cellulose provided: Methyl cellulose is a viscous, water soluble, semi-solid medium for immobilizing cells. The amount of methyl cellulose provided is for the number of 96-well plates determined by the kit. However, if dispensed carefully, there is sufficient methyl cellulose so that several smaller experiments can be performed using the plate(s) provided. • Dispensing individual component mixes and reagents: A repeater pipette may be used which uses a positive-displacement syringe is used to dispense the methyl cellulose mix. • Dispensing the master mix: Once all the component mixes have been added together, use a repeater pipette to dispense the master mix into individual wells. Using normal syringes with needles may result in inaccurate dispensing and greater variation between replicate wells. • Number of replicates performed: At least 4 replicates per culture point are preferred. Plate configuration: The configuration of the 96-well plate for an experiment is arbitrary. However, the number of replicates and the way in which the reagents required to measure luminescence are added, will determine the plate configuration. For example, if performing 4 or 8 replicates per culture point, we recommend configuring the plate in columns, that is, A1 to DI and EI to HI etc. for quadruplicate cultures and A1 to HI, A2 to 112 etc. for 8-replicate cultures are possible. If performing 6 or 12 replicates, we recommend configuring the plate, in rows, that is, A1-A6 and A7 to A12 for 6 replicates and A1-A12, BL to—813 for 12 replicates are possible. If performing column replicates, addition of the ATP releasing reagent and ATP luminescence-monitoring reagent can be performed using an 8-channel pipette from left to right across the plate. If performing row replicates, an 8- or 12-channel pipette can be used to dispense the reagents from the top to the bottom of the plate. To calculate the quantities of reagents required: • 1. Determine the-number of sample categories required for testing and the number of replicates for each sample. • 2. Multiply the number of sample categories by the number of replicates to obtain the number of wells to be used.
(§2) Before adding the target cells, ensure that a single cell suspension has been prepared. • 6. Mix the contents of the tube vigorously to obtain a homogenous master mix. • 7. To ensure that as little master mix as possible remains on the walls of the tube perform a quick spin in a centrifuge to 500 rpm and then let the centrifuge spin down. […] Dispense 100 μl of the reagent master mix into each of the replicate wells. This can be performed with a syringe and needle, but a repeater pipette is recommended for ease of use, reproducibility and to reduce variation. • 9. Transfer the culture plate to a 37 Celsius, fully humidified incubator with an atmosphere of 5% CO2. If possible, use an incubator gassed with 95% nitrogen in order to reduce the atmospheric oxygen concentration of 5% O2 since this helps increase the plating efficiency. • 10.
(§3) The addition of ATP releasing reagent and ATP luminescence-monitoring reagent is performed is the same manner as that for ATP. • 1.

Series [4] deals with mouse HPP-SP.
Text: as §1, §2, §3

For series [5], the system named is mouse T-CFC. Briefly: HALO 7-population hemotoxicology, mouse T-CFC. Format: cell-based. The method, then:
(§4) To calculate the quantities of reagents required: • 1.
(§5) (See (iv) Adhesive Plate Covering Film above). • 3. […] Repeat this procedure a total of 4 times. Mixing is very important. • 4.
(§6) Luminescence is measured in relative luminescence units or RLU.

Series [6] deals with mouse hematopoietic lineages. Format: cell-based. The method, then:
as §4, §5, §6

The test system of series [7] is CFC-GEMM stem cells. Kind of series: HALO 7-population hemotoxicology, CFC-GEMM. The class given is cell-based. The note with it: species not stated. The method, then: as §4, §5, §6
The test system of series [8] is progenitor cell populations. Briefly: HALO 7-population hemotoxicology, progenitor cell populations (hematopoietic lineages). The class given is cell-based. The method, then:
as §4, §5, §6

Series [9] concerns human hematopoietic lineages. Kind of series: HALO 7-population hemotoxicology, human hematopoietic lineages. Format: cell-based. The method, then: as §4, §5, §6
The subject of series [10] is lymphopoietic cell populations.
Text: as §1, §2, §3

The test system of series [11] is mouse CFC-GEMM.
Text: as §1, §2, §3

Series [12] relates to human CFC-GEMM.
Text: as §1, §2, §3

The test system of series [13] is HPP-SP stem cells. Briefly: HALO 7-population hemotoxicology, HPP-SP. The class given is cell-based. To be noted: species not stated. The method, then: as §4, §5, §6
Series [14] concerns BFU-E. Kind of series: HALO 7-population hemotoxicology, BFU-E (erythropoietic lineage). Format: cell-based. The method, then: as §4, §5, §6
Series [15] deals with primitive and mature stem cell populations. Kind of series: HALO 7-population hemotoxicology, primitive and mature stem cell populations. Format: cell-based. To be noted: FIG. 17A. The method, then:
as §4, §5, §6

Series [16] concerns mouse B-CFC. Kind of series: HALO 7-population hemotoxicology, mouse B-CFC. The class given is cell-based. The method, then:
as §4, §5, §6

Each structure is given as a SMILES string. Read-outs that look alike come from different tables or passages of the source.

For `COc1cccc2c1C(=O)c1c(O)c3c(c(O)c1C2=O)C[C@@](O)(C(=O)CO)C[C@@H]3O[C@H]1C[C@H](N)[C@H](O)[C@H](C)O1` [DOX, doxorubicin], the “effect on mean RLU (luminescence)” value in [1] (1 ng/ml (low)) is “little or no effect”; in series [1] (10 ng/ml (medium)), “decrease the luminescence”; in [1] (100 ng/ml (high)) it was “decrease the luminescence”. In series [2] (day 3), the “effect on ADP:ATP ratio” value is given as “increase”. In addition, in series [2] (day 7), the “apoptosis of BFU-E and immediate progeny” value is recorded as “induced into apoptosis”.

For the compound `CN(C)C=O` [N,N-dimethylformamide], in series [3] (human), the “effect on human HPP-SP” value is “effected”. The “effect on mouse HPP-SP” value in series [4] (mouse) is “stimulated”. For the same compound, the “effect on mouse T-CFC” value in series [5] is “stimulation”. Besides, the “effect on mouse hematopoietic lineages” value in [6] is given as “effected”.

Regarding `c1ccccc1` [benzene], the “effect on CFC-GEMM stem cells” value in series [7] is given as “acts at the CFC-GEMM level”. Also, in [8], the “effect on progenitor cells / hematopoietic lineages” value is listed as “hematopoietic suppression”.

For the compound `[Cl][Cd][Cl]` [cadmium chloride], the “effect on human hematopoietic lineages” value in [9] is given as “decrease”. Also, the “effect on human HPP-SP” value in series [3] (human) was “decrease”. Besides, the “effect on lymphopoietic cells / lymphopoietic lineages” value in series [10] (T-CFC & B-CFC) is given as “decrease”. For the same compound, the “effect on mouse HPP-SP” value in series [4] (mouse) is “decrease”. Further, the “effect on mouse CFC-GEMM” value in series [11] (mouse) is on record as “no effect”. Moreover, the “effect on human CFC-GEMM” value in series [12] (human) is listed as “decrease”. Also, the “effect on mouse hematopoietic lineages” value in series [6] was “decrease”.

On to `O=C(N[C@H](CO)[C@H](O)c1ccc([N+](=O)[O-])cc1)C(Cl)Cl` [chloramphenicol], for which, in [10] (T-CFC & B-CFC), the “effect on lymphopoietic cells / lymphopoietic lineages” value is “stimulation”. Also, the “effect on CFC-GEMM stem cells” value in [7] is recorded as “no effect”. In addition, the “effect on HPP-SP stem cells” value in series [13] is on record as “Stimulation”. In addition, the “effect on erythroid elements” value in series [14] (erythropoietic lineage) is given as “decrease”. In addition, the “effect on BFU-E” value in [14] (species not stated) is reported as “specifically inhibited”.

On to `CCn1cc(C(=O)O)c(=O)c2ccc(C)nc21` [naladixic acid], for which the “effect on lymphopoietic cells / lymphopoietic lineages” value in series [10] (T-CFC & B-CFC) is “No demonstrable effect”. In series [15], the “effect on stem cells” value is reported as “No demonstrable effect”. Moreover, the “effect on progenitor cells / hematopoietic lineages” value in [8] is on record as “No demonstrable effect”.

In the case of `Nc1ccc(N)cc1` [p-phenelenediamine], in series [4] (mouse), the “effect on mouse HPP-SP” value is “decrease”. Also, the “effect on mouse T-CFC” value in series [5] is given as “decrease”. Moreover, the “effect on mouse B-CFC” value in [16] is “decrease”.

As for `[Na+].[Na+].[O]=[Cr](=[O])([O-])[O][Cr](=[O])(=[O])[O-]` [sodium dichromate], in [3], the “effect on human HPP-SP” value was “inhibited”. Further, the “effect on lymphopoietic cells / lymphopoietic lineages” value in [10] is “inhibition”. For the same compound, the “effect on mouse HPP-SP” value in series [4] is given as “inhibited”. The “effect on mouse CFC-GEMM” value in series [11] is recorded as “inhibited”. Moreover, in [12], the “effect on human CFC-GEMM” value is reported as “inhibited”. For the same compound, the “effect on progenitor cells / hematopoietic lineages” value in series [8] is given as “inhibition”.
